The source of these data is US11958887B2, “Gene therapy for tuberous sclerosis” (The General Hospital Corporation, priority 2017, dated 2024).

This assay has as its system Tsc2^c/c mice injected ICV with AAV1-CBA-Cre. The assay can be described thus: Survival of Tsc2^c/c mice lacking tuberin (AAV1-CBA-Cre ICV) after treatment. The class given is in vivo. The note with it: AAV1-CBA-Cre ICV at P0; no cTuberin vector; vigabatrin 200 mg/kg. Here is the method: Experimental research protocols were approved by the Institutional Animal Care and Use Committee (IACUC) for the Massachusetts General Hospital (MGH) following the guidelines of the National Institutes of Health for the Care and Use of Laboratory Animals. Experiments were performed on Tsc2^c/c floxed mice (Onda et al., J. Clin. Invest. 104(6):687-695, 1999). In response to Cre recombinase, the Tsc2^c/c alleles are converted to null alleles, and the lacZallele expresses β-galactosidase. These mice have a normal, healthy lifespan.
For vector injections, on the day of birth (postnatal day 0 (P0)) or on P3, neonates were cryo-anesthetized and injected with 1 μl or 2 μl of viral vector AAV1-CBA-Cre into each cerebral lateral ventricle with a glass micropipette ([…] diameter at the tip) using a Narishige® IM300 microinjector at a rate of 2.4 psi/sec (Narshige International, East Meadow, NY). Mice were then placed on a warming pad and returned to their mothers after regaining normal color and full activity typical of newborn mice.
At 3 weeks of age (P21) mice were anesthetized by isoflurane inhalation (3.5% isoflurane in an induction chamber, then maintained anesthetized with 2-3% isoflurane and 1-2 liter/min oxygen for the duration of the experiment). […]

Molecules are shown by their SMILES.

`C=CC(N)CCC(=O)O` (stereo not shown) [vigabatrin] returned a median survival of 27 days.
